Measurements reported in PubChem BioAssay AID2060503 (Molecular Pharmacology Branch, DTP, NCI, 2025).
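Further: spheroids exposed to agents for 7 days before readout.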
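Wherever viability, T/C is given: percent viability relative to DMSO vehicle control taken as 100%.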

What follows are molecules tested on 817829-284-R-J1-PDC complex spheroids, viability (assay: Anticancer human tumor 817829-284-R-J1-PDC patient-derived colon adenocarcinoma cell line growth inhibition [GQUAD]). Conditions: curve of first compound; second compound 10 µM.
Procedure, shortened: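 Multi-cell-type spheroids of tumor cells with HUVEC and mesenchymal stem cells, treated with drug combinations. Concentrations descend in half-log steps from near clinical Cmax, or from 10 microM where Cmax is unknown; viability read-out.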
`CC1COCCN1c1cc(-c2ccnn2C)c2ccnc(-c3ccn[nH]3)c2n1` (configuration not stated) + CN(C)c1ccc(Nc2c3ccc(NC(=O)CCN4CCCC4)cc3nc3cc(NC(=O)CCN4CCCC4)ccc23)cc1 was tested, and the IC50 was < 31.6 nM.
With `CC1COCCN1c1cc(C2(O)CC3CCC(C2)O3)c2cnn(-c3ccn[nH]3)c2n1` (configuration not stated) + CN(C)c1ccc(Nc2c3ccc(NC(=O)CCN4CCCC4)cc3nc3cc(NC(=O)CCN4CCCC4)ccc23)cc1 the IC50 was < 31.6 nM.
Molecule `CC1COCCN1c1cc(C2(S(C)(=N)=O)CC2)nc(-c2ccnc3[nH]ccc23)n1` (configuration not stated) + CN(C)c1ccc(Nc2c3ccc(NC(=O)CCN4CCCC4)cc3nc3cc(NC(=O)CCN4CCCC4)ccc23)cc1 has an IC50 of 391 nM.
With `COc1ccc([C@@H](O)c2cc(-c3ncnc4cc(N5CCOCC5)ccc34)c(F)cc2Cl)nn1` + CN(C)c1ccc(Nc2c3ccc(NC(=O)CCN4CCCC4)cc3nc3cc(NC(=O)CCN4CCCC4)ccc23)cc1 the IC50 was 1140 nM.
In the case of `Cn1ncnc1[C@H]1c2n[nH]c(=O)c3cc(F)cc(c23)N[C@@H]1c1ccc(F)cc1` + CN(C)c1ccc(Nc2c3ccc(NC(=O)CCN4CCCC4)cc3nc3cc(NC(=O)CCN4CCCC4)ccc23)cc1, the IC50 is reported as > 316 nM.

Same assay, conditions: second compound 0.0316 µM; first compound 0.000999 µM; stronger effect = lower value
`Cn1ncnc1[C@H]1c2n[nH]c(=O)c3cc(F)cc(c23)N[C@@H]1c1ccc(F)cc1` + CN(C)c1ccc(Nc2c3ccc(NC(=O)CCN4CCCC4)cc3nc3cc(NC(=O)CCN4CCCC4)ccc23)cc1 showed a viability, T/C of 91.3%.

Same assay, conditions: second compound 0.0316 µM; first compound 0.00316 µM; stronger effect = lower value
For `Cn1ncnc1[C@H]1c2n[nH]c(=O)c3cc(F)cc(c23)N[C@@H]1c1ccc(F)cc1` + CN(C)c1ccc(Nc2c3ccc(NC(=O)CCN4CCCC4)cc3nc3cc(NC(=O)CCN4CCCC4)ccc23)cc1, the viability, T/C was 112%.

Same assay, conditions: second compound 0.0316 µM; first compound 0.00999 µM; stronger effect = lower value
`Cn1ncnc1[C@H]1c2n[nH]c(=O)c3cc(F)cc(c23)N[C@@H]1c1ccc(F)cc1` + CN(C)c1ccc(Nc2c3ccc(NC(=O)CCN4CCCC4)cc3nc3cc(NC(=O)CCN4CCCC4)ccc23)cc1 gave a viability, T/C of 112%.

Same assay, conditions: second compound 0.0316 µM; first compound 0.0316 µM; stronger effect = lower value
`CC(C)n1c(=O)n(C)c2cnc3cc(F)c(-c4ccc(OCCCN5CCCCC5)nc4)cc3c21` + CN(C)c1ccc(Nc2c3ccc(NC(=O)CCN4CCCC4)cc3nc3cc(NC(=O)CCN4CCCC4)ccc23)cc1 showed a viability, T/C of 92.8%.
`CC1COCCN1c1cc(-c2ccnn2C)c2ccnc(-c3ccn[nH]3)c2n1` (configuration not stated) + CN(C)c1ccc(Nc2c3ccc(NC(=O)CCN4CCCC4)cc3nc3cc(NC(=O)CCN4CCCC4)ccc23)cc1 gave a viability, T/C of 49.1%.
In the case of `CC1COCCN1c1cc(C2(O)CC3CCC(C2)O3)c2cnn(-c3ccn[nH]3)c2n1` (configuration not stated) + CN(C)c1ccc(Nc2c3ccc(NC(=O)CCN4CCCC4)cc3nc3cc(NC(=O)CCN4CCCC4)ccc23)cc1, the viability, T/C is reported as 30%.
`CC1COCCN1c1cc(C2(S(C)(=N)=O)CC2)nc(-c2ccnc3[nH]ccc23)n1` (configuration not stated) + CN(C)c1ccc(Nc2c3ccc(NC(=O)CCN4CCCC4)cc3nc3cc(NC(=O)CCN4CCCC4)ccc23)cc1 gave a viability, T/C of 94.2%.
For `COc1ccc([C@@H](O)c2cc(-c3ncnc4cc(N5CCOCC5)ccc34)c(F)cc2Cl)nn1` + CN(C)c1ccc(Nc2c3ccc(NC(=O)CCN4CCCC4)cc3nc3cc(NC(=O)CCN4CCCC4)ccc23)cc1, the viability, T/C was 104%.
In the case of `Cn1ncnc1[C@H]1c2n[nH]c(=O)c3cc(F)cc(c23)N[C@@H]1c1ccc(F)cc1` + CN(C)c1ccc(Nc2c3ccc(NC(=O)CCN4CCCC4)cc3nc3cc(NC(=O)CCN4CCCC4)ccc23)cc1, the viability, T/C is reported as 95%.

Same assay, conditions: second compound 0.0316 µM; first compound 0.0999 µM; stronger effect = lower value
With `Cn1ncnc1[C@H]1c2n[nH]c(=O)c3cc(F)cc(c23)N[C@@H]1c1ccc(F)cc1` + CN(C)c1ccc(Nc2c3ccc(NC(=O)CCN4CCCC4)cc3nc3cc(NC(=O)CCN4CCCC4)ccc23)cc1 the viability, T/C was 85.1%.

Same assay, conditions: second compound 0.0316 µM; first compound 0.1 µM; stronger effect = lower value
`CC(C)n1c(=O)n(C)c2cnc3cc(F)c(-c4ccc(OCCCN5CCCCC5)nc4)cc3c21` + CN(C)c1ccc(Nc2c3ccc(NC(=O)CCN4CCCC4)cc3nc3cc(NC(=O)CCN4CCCC4)ccc23)cc1 gave a viability, T/C of 104%.
In the case of `CC1COCCN1c1cc(-c2ccnn2C)c2ccnc(-c3ccn[nH]3)c2n1` (configuration not stated) + CN(C)c1ccc(Nc2c3ccc(NC(=O)CCN4CCCC4)cc3nc3cc(NC(=O)CCN4CCCC4)ccc23)cc1, the viability, T/C is reported as 21.1%.
`CC1COCCN1c1cc(C2(O)CC3CCC(C2)O3)c2cnn(-c3ccn[nH]3)c2n1` (configuration not stated) + CN(C)c1ccc(Nc2c3ccc(NC(=O)CCN4CCCC4)cc3nc3cc(NC(=O)CCN4CCCC4)ccc23)cc1 was tested, and the viability, T/C was 13.9%.
In the case of `CC1COCCN1c1cc(C2(S(C)(=N)=O)CC2)nc(-c2ccnc3[nH]ccc23)n1` (configuration not stated) + CN(C)c1ccc(Nc2c3ccc(NC(=O)CCN4CCCC4)cc3nc3cc(NC(=O)CCN4CCCC4)ccc23)cc1, the viability, T/C is reported as 93.2%.
With `COc1ccc([C@@H](O)c2cc(-c3ncnc4cc(N5CCOCC5)ccc34)c(F)cc2Cl)nn1` + CN(C)c1ccc(Nc2c3ccc(NC(=O)CCN4CCCC4)cc3nc3cc(NC(=O)CCN4CCCC4)ccc23)cc1 the viability, T/C was 98.7%.

Same assay, conditions: second compound 0.0316 µM; first compound 0.316 µM; stronger effect = lower value
In the case of `CC(C)n1c(=O)n(C)c2cnc3cc(F)c(-c4ccc(OCCCN5CCCCC5)nc4)cc3c21` + CN(C)c1ccc(Nc2c3ccc(NC(=O)CCN4CCCC4)cc3nc3cc(NC(=O)CCN4CCCC4)ccc23)cc1, the viability, T/C is reported as 108%.
Work on `CC1COCCN1c1cc(-c2ccnn2C)c2ccnc(-c3ccn[nH]3)c2n1` (configuration not stated) + CN(C)c1ccc(Nc2c3ccc(NC(=O)CCN4CCCC4)cc3nc3cc(NC(=O)CCN4CCCC4)ccc23)cc1 yielded a viability, T/C of 10.9%.
Molecule `CC1COCCN1c1cc(C2(O)CC3CCC(C2)O3)c2cnn(-c3ccn[nH]3)c2n1` (configuration not stated) + CN(C)c1ccc(Nc2c3ccc(NC(=O)CCN4CCCC4)cc3nc3cc(NC(=O)CCN4CCCC4)ccc23)cc1 has a viability, T/C of 8.88%.
Molecule `CC1COCCN1c1cc(C2(S(C)(=N)=O)CC2)nc(-c2ccnc3[nH]ccc23)n1` (configuration not stated) + CN(C)c1ccc(Nc2c3ccc(NC(=O)CCN4CCCC4)cc3nc3cc(NC(=O)CCN4CCCC4)ccc23)cc1 has a viability, T/C of 75.4%.
Work on `COc1ccc([C@@H](O)c2cc(-c3ncnc4cc(N5CCOCC5)ccc34)c(F)cc2Cl)nn1` + CN(C)c1ccc(Nc2c3ccc(NC(=O)CCN4CCCC4)cc3nc3cc(NC(=O)CCN4CCCC4)ccc23)cc1 yielded a viability, T/C of 103%.
`Cn1ncnc1[C@H]1c2n[nH]c(=O)c3cc(F)cc(c23)N[C@@H]1c1ccc(F)cc1` + CN(C)c1ccc(Nc2c3ccc(NC(=O)CCN4CCCC4)cc3nc3cc(NC(=O)CCN4CCCC4)ccc23)cc1 showed a viability, T/C of 68.9%.

Same assay, conditions: second compound 0.0316 µM; first compound 1 µM; stronger effect = lower value
With `CC(C)n1c(=O)n(C)c2cnc3cc(F)c(-c4ccc(OCCCN5CCCCC5)nc4)cc3c21` + CN(C)c1ccc(Nc2c3ccc(NC(=O)CCN4CCCC4)cc3nc3cc(NC(=O)CCN4CCCC4)ccc23)cc1 the viability, T/C was 107%.
`CC1COCCN1c1cc(-c2ccnn2C)c2ccnc(-c3ccn[nH]3)c2n1` (configuration not stated) + CN(C)c1ccc(Nc2c3ccc(NC(=O)CCN4CCCC4)cc3nc3cc(NC(=O)CCN4CCCC4)ccc23)cc1 showed a viability, T/C of 7.46%.
For `CC1COCCN1c1cc(C2(O)CC3CCC(C2)O3)c2cnn(-c3ccn[nH]3)c2n1` (configuration not stated) + CN(C)c1ccc(Nc2c3ccc(NC(=O)CCN4CCCC4)cc3nc3cc(NC(=O)CCN4CCCC4)ccc23)cc1, the viability, T/C was 7.25%.
For `CC1COCCN1c1cc(C2(S(C)(=N)=O)CC2)nc(-c2ccnc3[nH]ccc23)n1` (configuration not stated) + CN(C)c1ccc(Nc2c3ccc(NC(=O)CCN4CCCC4)cc3nc3cc(NC(=O)CCN4CCCC4)ccc23)cc1, the viability, T/C was 27.5%.
In the case of `COc1ccc([C@@H](O)c2cc(-c3ncnc4cc(N5CCOCC5)ccc34)c(F)cc2Cl)nn1` + CN(C)c1ccc(Nc2c3ccc(NC(=O)CCN4CCCC4)cc3nc3cc(NC(=O)CCN4CCCC4)ccc23)cc1, the viability, T/C is reported as 85.5%.

Same assay, conditions: second compound 0.0316 µM; first compound 3.16 µM; stronger effect = lower value
`CC(C)n1c(=O)n(C)c2cnc3cc(F)c(-c4ccc(OCCCN5CCCCC5)nc4)cc3c21` + CN(C)c1ccc(Nc2c3ccc(NC(=O)CCN4CCCC4)cc3nc3cc(NC(=O)CCN4CCCC4)ccc23)cc1 showed a viability, T/C of 105%.
